We go through two compounds from article PMC4967823, “A single amino acid substitution in a chitinase of the legume Medicago truncatula is sufficient to gain Nod-factor hydrolase activity” (Open Biology, 2016).

What is called Km is the substrate concentration at which the rate is half of its maximum.

SMILES strings stand for the structures.

The target of this assay is T1, MtCHIT5b (Medicago truncatula, UniProt A0A072UR65).
T1 construct: gene CHIT5B; without predicted signal peptide, N-terminal 6xHis tag (pET28b or pET32a for variants), E. coli BL21(DE3), Ni-NTA
Briefly: reverse-phase HPLC (C18) hydrolysis assay. The format is biochemical. The conditions noted are these: 25 mM sodium acetate pH 5.0, 37 C. The text has this:
reverse-phase HPLC (C18) hydrolysis assay on MtCHIT5b

T1 sequence (A0A072UR65 27-379): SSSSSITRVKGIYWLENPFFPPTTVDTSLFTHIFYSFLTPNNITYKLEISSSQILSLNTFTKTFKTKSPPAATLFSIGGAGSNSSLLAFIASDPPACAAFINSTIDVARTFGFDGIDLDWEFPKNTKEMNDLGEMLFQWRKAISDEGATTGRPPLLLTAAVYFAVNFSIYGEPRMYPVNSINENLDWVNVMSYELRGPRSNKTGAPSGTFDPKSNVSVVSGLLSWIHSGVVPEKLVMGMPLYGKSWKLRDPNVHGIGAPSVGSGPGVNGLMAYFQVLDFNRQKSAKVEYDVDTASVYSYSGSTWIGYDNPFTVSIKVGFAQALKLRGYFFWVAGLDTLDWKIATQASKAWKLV

Regarding `CCCCCC/C=C\CCCCC/C=C/C(=O)N[C@H]1[C@H](O[C@H]2[C@H](O)[C@@H](NC(C)=O)[C@H](O[C@H]3[C@H](O)[C@@H](NC(C)=O)[C@H](O[C@H]4[C@H](O)[C@@H](NC(C)=O)C(O)O[C@@H]4COS(=O)(=O)O)O[C@@H]3CO)O[C@@H]2CO)O[C@H](COC(C)=O)[C@@H](O)[C@@H]1O` (some centres unmarked) [NodSm-IV(C16 : 2, Ac, S)], the Km worked out at 96.9 ± 18.8 µM.

Regarding `CCCCCC/C=C\CCCCC/C=C/C(=O)N[C@H]1[C@H](O[C@H]2[C@H](O)[C@@H](NC(C)=O)[C@H](O[C@H]3[C@H](O)[C@@H](NC(C)=O)[C@H](O[C@H]4[C@H](O)[C@@H](NC(C)=O)C(O)O[C@@H]4COS(=O)(=O)O)O[C@@H]3CO)O[C@@H]2CO)O[C@H](CO)[C@@H](O)[C@@H]1O` (some centres unmarked) [NodSm-IV(C16 : 2, S)], the Km was 58.6 ± 11.4 µM.
